Target: T1, human TLR7 (hTLR7) (Homo sapiens, UniProt Q9NYK1)
T1 sequence (Q9NYK1 27-1049): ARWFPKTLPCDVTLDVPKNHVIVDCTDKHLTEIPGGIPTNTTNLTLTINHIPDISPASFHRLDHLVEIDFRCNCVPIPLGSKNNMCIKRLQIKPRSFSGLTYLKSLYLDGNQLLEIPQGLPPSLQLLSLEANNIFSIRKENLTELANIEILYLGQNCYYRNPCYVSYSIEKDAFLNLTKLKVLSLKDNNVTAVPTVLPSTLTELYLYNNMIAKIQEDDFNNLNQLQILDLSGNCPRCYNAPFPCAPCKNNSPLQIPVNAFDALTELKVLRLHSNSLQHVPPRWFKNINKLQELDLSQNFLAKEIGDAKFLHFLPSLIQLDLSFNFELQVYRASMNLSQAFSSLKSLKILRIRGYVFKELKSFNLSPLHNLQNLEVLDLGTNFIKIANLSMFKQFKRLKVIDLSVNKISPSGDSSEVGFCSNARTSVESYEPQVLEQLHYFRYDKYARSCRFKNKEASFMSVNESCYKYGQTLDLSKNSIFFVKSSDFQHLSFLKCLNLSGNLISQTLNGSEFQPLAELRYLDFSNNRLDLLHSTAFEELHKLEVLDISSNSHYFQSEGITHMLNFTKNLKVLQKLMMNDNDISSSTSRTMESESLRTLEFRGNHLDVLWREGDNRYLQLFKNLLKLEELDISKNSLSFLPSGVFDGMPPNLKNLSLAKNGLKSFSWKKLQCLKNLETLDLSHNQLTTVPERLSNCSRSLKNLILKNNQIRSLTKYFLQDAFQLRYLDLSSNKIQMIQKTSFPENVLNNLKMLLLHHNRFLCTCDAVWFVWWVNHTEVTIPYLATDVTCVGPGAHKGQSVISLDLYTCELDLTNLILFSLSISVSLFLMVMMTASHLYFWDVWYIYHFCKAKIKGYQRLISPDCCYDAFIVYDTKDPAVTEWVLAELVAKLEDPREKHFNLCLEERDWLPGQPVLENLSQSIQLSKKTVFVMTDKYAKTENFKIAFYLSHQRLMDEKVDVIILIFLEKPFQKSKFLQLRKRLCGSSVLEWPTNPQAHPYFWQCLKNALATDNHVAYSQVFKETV
Experiment: HEK-Blue hTLR7 SEAP/NF-κB reporter assay (agonist; inactive in hTLR8 cells)
Assay type: cell-based

C=C(CC)C(=O)c1ccc(OCC(=O)NCc2ccc(Cn3c(O)nc4c(N)nc(OCCOC)nc43)cc2)c(Cl)c1Cl [compound 4, N-(4-((6-amino-8-hydroxy-2-(2-methoxyethoxy)-9H-purin-9-yl)methyl)benzyl)-2-(2,3-dichloro-4-(2-methylenebutanoyl)phenoxy)acetamide]
HEK-Blue hTLR7 SEAP/NF-κB reporter assay (agonist; inactive in hTLR8 cells): T7-EA induced more potent SEAP reaction than T7 in HEK-Blue hTLR7 reporter cells

Reference: publication PMC7055022, “A novel TLR7 agonist as adjuvant to stimulate high quality HBsAg-specific immune responses in an HBV mouse model” (Journal of Translational Medicine, 2020)
